Measured values: patent EP2787958B1, “CHELIDONIUM MAJUS EXTRACTS AND THEIR USE IN THE TREATMENT OF SKIN DISORDERS AND PROMOTION OF SKIN REGENERATION” (priority 2011, dated 2013)
Read-outs that look alike come from different tables or passages of the source.

Key:
[1] = tested on: Human dermal fibroblasts (HDF); assay: Mitochondrial dehydrogenase activity (WST-1 formazan assay) in HDF cells; conditions: for Revitalizing agent: 24 hours; for activity at 1 µM / activity at 10 µM: Homo sapiens, Fibroblast, read-out: % mitochondrial dehydrogenase activity ± SD
[2] = tested on: collagen produced by HDF cells; assay: Quantity of collagen produced by the cells (elution of Sirius Red)
HDF cells [3] = assay: Evaluation of cell proliferation (counting of Sirius Red stained cells in photographs); conditions: for No. of cells from photo ± SD: 24 hours
HDF cells [4] = assay: Summary of uses and toxic effects deduced from the cell assays (Table 1); format: cell-based, Human; conditions: for Anti-fibrotic (prevention of scar formation, also from acne) / Cytoprotective (antioxidant, anti-inflammatory and anti-ageing; useful also in the treatment of acne) / Cytotoxic / Irritant / Wound-healing: 24 hours
Method: Antiradical (skin protective): this is deduced from the free radical scavenger effects.
Revitalizing: this is deduced from the increased mitochondrial dehydrogenase effect.
Cytoprotective, with regard to oxidative damage (antioxidant, anti-inflammatory and anti-ageing): this is deduced from antagonising the stimulation of IL-1β and/or IL-6 induced by 100 µM H2O2 and from the absence of changes in cell morphology similar to the ones due to cell senescence.
Wound healing: this is deduced from the effect of inhibiting the production of IL-1β and by the effect of stimulating cell proliferation under standard growth conditions.
Cytotoxicity: this is deduced from the effect of reducing mitochondrial dehydrogenase activity or from the presence of morphologies characteristic of cell senescence.
Irritation: this is deduced from the effect of increased production of IL-6 and/or IL-1β under standard growth conditions.
Said uses in the fields of medicine and cosmetics or the toxic effects of the substances of the invention at a given dosage, for 24 hours, are summarized in Table 1 below.

interleukin 6 (IL-6) = assay: Inflammatory cytokines in cell supernatant (Mosaic ELISA microarray): IL-6; format: cell-based, Human; conditions: for IL-6 ng/(ml* No. of cells from photo) ± SD: 24 hours
Method: (§1) The inflammatory cytokines, CD40 ligand (CD40L), interferon γ (INF-γ), interleukin 1α (IL-1α), interleukin 1β (IL-1β), interleukin 6 (IL-6), interleukin 8 (IL-8), interleukin 17 (IL-17) and tumour necrosis factor α (TNF-α) were determined qualitatively and quantitatively. Each measurement was performed in duplicate using a Mosaic™ ELISA protein microarray assay system from R&D System in accordance with the supplier's instructions. Furthermore, with the aim of obtaining a correlation model between light signal intensity and cytokine concentration, a calibration curve using 6 concentrations was performed for each of them. Analysis of the data was performed using the dedicated Q-View™ Imager software package from Quansys Biosciences

[5] = Anti-radical activity (decay of the DPPH radical); format: biochemical; conditions: for Anti-radical (skin protective): 24 hours
Method: With regard to assays aimed at evaluating anti-radical activity, a chemical test was used where the decay of the diphenylpicrylhydrazyl (DPPH) radical is assessed in the absence or in the presence of the test substances. Indeed, the DPPH radical is used to test the ability of substances to act as free radical scavengers. DPPH in solution has a purple colour with a maximum absorbance peak at 517 nm which changes to yellow-colourless when this radical extracts a hydrogen atom from a radical scavenger to give rise to the reduced form DPPH-H. The assay has been conducted in quadruplicate in 96 well microplates (SARSTEDT Tissue Culture Plate 96-well flat bottom cell+). 50 µl of an ethanol solution of the test substance at 2X concentration and then 50 µl of a 200 µM solution of DPPH (MW 168,18, Aldrich 2,2-di(4-tert-octylphenyl)-1-picrylhydrazyl, free radical Lot# MKBF7574V Cat N° 257621-100 mg) have been added to each well of the microplate. A positive control consisting of 0.1 mM vitamin C and a negative control consisting of ethanol alone were included in each microplate. After 30 minutes from the addition of DPPH, photographs of the plates were taken (Canon PowerShot A610 5.0 Mpixels) and read spectrophotometrically at 530 nm.
Based on the analysis of the results reported in Table 9, some substances were selected for further characterisation of their anti-radical activity. For the selected substances, dose-activity curves were obtained and the IC50 value were computed using a non-linear regression model with the Hill equation at variable slope. Such substances had been selected due to both their anti-radical potential and the easiness of their isolation/production. The selection of substances was made in view of cosmetics applications. Moreover their activity on human dermal fibroblasts (HDF) is expected to be useful also for the development of dermatological medications. The selected substances are discussed below.

interleukin 1β (IL-1β) = assay: Inflammatory cytokines in cell supernatant (Mosaic ELISA microarray): IL-1β; format: cell-based, Human; conditions: for IL-1β ng/(ml* No. of cells from photo) ± SD: 24 hours
Method: as §1

[6] = Dose 1 µm (coptisine: 1 pm [sic])

COc1ccc2c(c[n+](C)c3c4cc5c(cc4ccc23)OCO5)c1OC [chelerythrine]
concentrations above which the predominant effect is inhibition of mitochondrial dehydrogenase activity [1]: higher than 1 nM | mitochondrial dehydrogenase activity (effect in words) ([1]; 1 µM, 18 h): stimulation of mitochondrial dehydrogenase activity | Revitalizing agent [1, 6]: Yes | Revitalizing agent ([1]; Dose 10 µm): No | activity at 1 µM ([1]; 18 h): 107 ± 10.5% | activity at 10 µM ([1]; 18 h): 0.87 ± 0.74% | activity at 1 µM ([1]; 42 h): 63.9 ± 4.3% | activity at 10 µM ([1]; 42 h): 0.63 ± 8.46% | inhibitory power toward the mitochondrial dehydrogenase activity ([1]; skin fibroblast cells and/or keratinocytes): marked inhibitory power | collagen production (effect in words) ([2]; 1 µM, 34 ng/ml TGF-β1): antagonizes the stimulation of collagen induced by 34 ng/ml TGF-β1 | collagen production (effect in words) ([2]; 1 µM, 100 µM H2O2): tendency to stimulate collagen production | collagen production (effect in words) ([2]; 1 µM, standard conditions): tendency to inhibit collagen production | collagen production (effect in words) ([2]; 10 µM, 34 ng/ml TGF-β1): stimulates collagen production | collagen production (effect in words) ([2]; 10 µM, 100 µM H2O2): stimulates collagen production | collagen production (effect in words) ([2]; 10 µM, standard conditions): stimulates collagen production | cell proliferation (effect in words) (HDF cells [3]; 1 µM): tendency to stimulate cell proliferation | No. of cells from photo ± SD (HDF cells [3]; 1 µM, 34 ng/ml TGF-β1): 201±15 | No. of cells from photo ± SD (HDF cells [3]; 1 µM, 100 µM H2O2): 289±14 | No. of cells from photo ± SD (HDF cells [3]; 1 µM, Standard conditions): 229±20 | cell proliferation (effect in words) (HDF cells [3]; 10 µM): marked inhibition of proliferation | No. of cells from photo ± SD (HDF cells [3]; 10 µM, 34 ng/ml TGF-β1): 10±4 | No. of cells from photo ± SD (HDF cells [3]; 10 µM, 100 µM H2O2): 10±5 | No. of cells from photo ± SD (HDF cells [3]; 10 µM, Standard conditions): 3±3 | Anti-fibrotic (prevention of scar formation, also from acne) (HDF cells [4]; [6]): Yes (↓collagen, ↓IL-6, ↓IL-1β) | Cytoprotective (antioxidant, anti-inflammatory and anti-ageing; useful also in the treatment of acne) (HDF cells [4]; [6]): Yes (↓IL-6, ↓IL-1β) | Cytotoxic (HDF cells [4]; [6]): No | Irritant (HDF cells [4]; [6]): No | Wound-healing (HDF cells [4]; [6]): Yes (↑prolif, ↓IL-1β) | Anti-fibrotic (prevention of scar formation, also from acne) (HDF cells [4]; Dose 10 µm): No | Cytoprotective (antioxidant, anti-inflammatory and anti-ageing; useful also in the treatment of acne) (HDF cells [4]; Dose 10 µm): No | Cytotoxic (HDF cells [4]; Dose 10 µm): Yes (cell death, ↓dehydrogenase) | Irritant (HDF cells [4]; Dose 10 µm): Yes (↑IL-6, ↑IL-1β) | Wound-healing (HDF cells [4]; Dose 10 µm): No | concentrations at which no toxic (cytotoxic and irritant) effects are shown (HDF cells [4]; exposure for 24 hours): less than or equal to 1 µM | IL-6 production (effect in words) (interleukin 6 (IL-6); 1 µM, 34 ng/ml TGF-β1): antagonizes the production of IL-6 | IL-6 ng/(ml* No. of cells from photo) ± SD (interleukin 6 (IL-6); 1 µM, 34 ng/ml TGF-β1): 510±43 ng/(ml* No. of cells from photo) | IL-6 production (effect in words) (interleukin 6 (IL-6); 1 µM, 100 µM H2O2): antagonizes the production of IL-6 | IL-6 ng/(ml* No. of cells from photo) ± SD (interleukin 6 (IL-6); 1 µM, 100 µM H2O2): 626±8 ng/(ml* No. of cells from photo) | IL-6 ng/(ml* No. of cells from photo) ± SD (interleukin 6 (IL-6); 1 µM, Standard conditions): 396±14 ng/(ml* No. of cells from photo) | IL-6 production (effect in words) (interleukin 6 (IL-6); 1 µM, standard conditions): inhibits the production of IL-6 | IL-6 production (effect in words) (interleukin 6 (IL-6); 10 µM, 34 ng/ml TGF-β1): stimulates IL-6 production | IL-6 ng/(ml* No. of cells from photo) ± SD (interleukin 6 (IL-6); 10 µM, 34 ng/ml TGF-β1): 4652±243 ng/(ml* No. of cells from photo) | IL-6 production (effect in words) (interleukin 6 (IL-6); 10 µM, 100 µM H2O2): stimulates IL-6 production | IL-6 ng/(ml* No. of cells from photo) ± SD (interleukin 6 (IL-6); 10 µM, 100 µM H2O2): 5844±328 ng/(ml* No. of cells from photo) | IL-6 ng/(ml* No. of cells from photo) ± SD (interleukin 6 (IL-6); 10 µM, Standard conditions): 572±14 ng/(ml* No. of cells from photo) | IL-6 production (effect in words) (interleukin 6 (IL-6); 10 µM, standard conditions): stimulates IL-6 production | % DPPH activity ([5]; 1 mM, 30 minutes): 115% | Anti-radical (skin protective) [5, 6]: No | Anti-radical (skin protective) ([5]; Dose 10 µm): No | IL-1β production (effect in words) (interleukin 1β (IL-1β); 1 µM, 34 ng/ml TGF-β1): antagonizes the production of IL-1β | IL-1β ng/(ml* No. of cells from photo) ± SD (interleukin 1β (IL-1β); 1 µM, 34 ng/ml TGF-β1): 98±10 ng/(ml* No. of cells from photo) | IL-1β production (effect in words) (interleukin 1β (IL-1β); 1 µM, 100 µM H2O2): antagonizes the production of IL-1β | IL-1β ng/(ml* No. of cells from photo) ± SD (interleukin 1β (IL-1β); 1 µM, 100 µM H2O2): 69±20 ng/(ml* No. of cells from photo) | IL-1β ng/(ml* No. of cells from photo) ± SD (interleukin 1β (IL-1β); 1 µM, Standard conditions): 96±101 ng/(ml* No. of cells from photo) | IL-1β production (effect in words) (interleukin 1β (IL-1β); 1 µM, standard conditions): inhibits the production of IL-1β | IL-1β production (effect in words) (interleukin 1β (IL-1β); 10 µM, 34 ng/ml TGF-β1): stimulates IL-1β production | IL-1β ng/(ml* No. of cells from photo) ± SD (interleukin 1β (IL-1β); 10 µM, 34 ng/ml TGF-β1): 1632±93 ng/(ml* No. of cells from photo) | IL-1β production (effect in words) (interleukin 1β (IL-1β); 10 µM, 100 µM H2O2): stimulates IL-1β production | IL-1β ng/(ml* No. of cells from photo) ± SD (interleukin 1β (IL-1β); 10 µM, 100 µM H2O2): 1735±469 ng/(ml* No. of cells from photo) | IL-1β ng/(ml* No. of cells from photo) ± SD (interleukin 1β (IL-1β); 10 µM, Standard conditions): 144±4 ng/(ml* No. of cells from photo) | IL-1β production (effect in words) (interleukin 1β (IL-1β); 10 µM, standard conditions): stimulates IL-1β production

O=C1O[C@H]([C@@H](O)CO)C(O)=C1O [vitamin C, reference compound]
% DPPH activity ([5]; 0.1 mM, positive control): 0%
